From patent US11214803B2, “Modulators of YAP1 expression” (Ionis Pharmaceuticals, Inc., priority 2019, dated 2022)
Strand notation (5' to 3'): a small letter for the sugar, then the base; units joined by * are phosphorothioate-linked, units joined directly phosphodiester-linked; [ ] holds rarer units or linkages, { } end groups; capitals alone tell only the bases. k = constrained ethyl (cEt); [5mC] = 5-methylcytosine; d = 2'-deoxy (DNA)

Tested on: Yap1 mRNA
Experiment: Antisense inhibition of human Yap1 in A-431 cells by cEt gapmers, single dose (Example 2, RTS4814)
Format: cell-based
Procedure, shortened: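 Read-out is Yap1 mRNA as percent of untreated cells, by real-time RT-PCR (probe set RTS4814) normalized to total RNA via RIBOGREEN. Cells were A-431 dosed with 2,000 nM gapmer without transfection for approximately 48 hours.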

[1] = Table 19, A-431 cells, 5,000 cells per well, free uptake, 2,000 nM modified oligonucleotide, approx. 48 hours, RTS4814, normalized to RIBOGREEN, Yap1 mRNA as percent of untreated control
[2] = Table 20, Yap1 mRNA, percent of untreated control, 3-10-3 cEt gapmers targeting SEQ ID NO.: 1 and 2
[3] = Table 21, Yap1 mRNA, percent of untreated control, 3-10-3 cEt gapmers targeting SEQ ID NO.: 1 and 2
[4] = Table 22, Yap1 mRNA as percent of untreated control, 3-10-3 cEt gapmers, single dose
[5] = Table 32, Yap1 mRNA, percent of untreated control, 3-10-3 cEt gapmers targeting SEQ ID NO.: 1, and 2
[6] = Yap1 mRNA as percent of untreated control, A-431 cells, 3-10-3 cEt gapmers targeting SEQ ID NO.: 1, and 2, Table 30
[7] = A-431 cells, 5,000 cells per well, free uptake, 2,000 nM modified oligonucleotide, approx. 48 hours, RTS4814, normalized to RIBOGREEN, Table 4, asterisk (*) = targets amplicon region of primer probe set
[8] = Table 25, Yap1 mRNA as percent of untreated control, 3-10-3 cEt gapmers targeting SEQ ID NO.: 1, and 2
[9] = Table 18, A-431 cells, 5,000 cells per well, free uptake, 2,000 nM modified oligonucleotide, approx. 48 hours, RTS4814, normalized to RIBOGREEN, Yap1 mRNA as percent of untreated control
[10] = Table 5, A-431 cells, 5,000 cells per well, free uptake, 2,000 nM modified oligonucleotide, approx. 48 hours, RTS4814, normalized to RIBOGREEN, Yap1 mRNA relative to untreated control cells
[11] = Table 23, Yap1 mRNA as percent of untreated control, 3-10-3 cEt gapmers, single dose
[12] = Table 24, Yap1 mRNA as percent of untreated control, 3-10-3 cEt gapmers targeting SEQ ID NO.: 1, and 2
[13] = Yap1 mRNA as percent of untreated control, A-431 cells, 3-10-3 cEt gapmers targeting SEQ ID NO.: 1, and 2, Table 31
[14] = Table 33, Yap1 mRNA, percent of untreated control, 3-10-3 cEt gapmers targeting SEQ ID NO.: 1, and 2

1075941 (kA*kG*kT*d[5mC]*dA*dA*dT*dA*dG*d[5mC]*dA*dA*dT*k[5mC]*kA*k[5mC]; antisense) [Compound 1075941]
YAP1 (% UTC) [1]: 11 % UTC

1076070 (kA*kT*kT*dA*dG*dT*dA*dA*dT*dG*d[5mC]*dA*d[5mC]*kA*kG*kG; antisense) [Compound 1076070]
YAP1 (% UTC) [2]: 6 % UTC

1074343 (antisense kA*kG*kA*d[5mC]*dA*dT*d[5mC]*d[5mC]*d[5mC]*dG*dG*dG*dA*kG*kA*kA) [Compound 1074343]
YAP1 (% UTC) [3]: 18 % UTC

1075432 (antisense k[5mC]*kT*kA*dA*d[5mC]*dT*dA*dA*dA*d[5mC]*dT*dG*dA*kT*kT*k[5mC]) [Compound 1075432]
YAP1 (% UTC) [4]: 121 % UTC

1074802 (kG*kG*k[5mC]*dA*d[5mC]*dT*dA*d[5mC]*dA*dT*dT*dT*dA*kG*kA*kA; antisense) [compound 1074802]
YAP1 (% UTC) [5]: 37 % UTC

1075024 (antisense kA*k[5mC]*kT*dG*dA*dA*d[5mC]*dA*dA*dG*dT*dA*dT*k[5mC]*kT*kT) [compound 1075024]
YAP1 (% UTC) [6]: 32 % UTC

716433 (kA*kG*k[5mC]*dA*dT*d[5mC]*dT*dG*dA*d[5mC]*dT*dT*d[5mC]*kT*kA*kA; antisense) [Compound 716433]
YAP1 (% UTC) [7]: 20 % UTC

1075115 (antisense kG*kT*kA*dT*dA*dG*d[5mC]*d[5mC]*dT*dT*dA*dT*dT*k[5mC]*kT*kT) [Compound 1075115]
YAP1 (% UTC) [8]: 6 % UTC

1074980 (antisense kT*kA*kT*dT*dG*d[5mC]*d[5mC]*dA*dG*dT*dT*d[5mC]*dT*kT*kG*kT) [Compound 1074980]
YAP1 (% UTC) [9]: 26 % UTC

1076132 (k[5mC]*kA*kT*d[5mC]*dA*dA*dT*dA*d[5mC]*dT*dG*dA*d[5mC]*kA*kT*k[5mC]; antisense) [Compound 1076132]
YAP1 (% UTC) [9]: 28 % UTC

1075143 (antisense k[5mC]*k[5mC]*kT*dT*dA*dT*dT*dA*dG*dT*d[5mC]*dA*dG*kT*kT*k[5mC]) [Compound 1075143]
YAP1 (% UTC) [3]: 2 % UTC

716392 (k[5mC]*kT*kG*d[5mC]*d[5mC]*dA*d[5mC]*d[5mC]*d[5mC]*dA*dT*dG*dA*k[5mC]*kG*k[5mC]; antisense) [Compound 716392]
YAP1 (% UTC) [10]: 95 % UTC

1075081 (antisense kG*kA*kT*dT*dA*d[5mC]*dA*dA*dA*dG*dA*d[5mC]*dA*kG*k[5mC]*k[5mC]) [Compound 1075081]
YAP1 (% UTC) [11]: 7 % UTC

1076360 (k[5mC]*kT*kA*dT*dT*dT*dA*dT*d[5mC]*d[5mC]*dT*dA*dG*kT*kT*kA; antisense) [Compound 1076360]
YAP1 (% UTC) [4]: 59 % UTC

1074404 (antisense kG*kG*k[5mC]*dT*dT*dA*dT*dG*dG*dA*dA*dA*dT*kT*kT*k[5mC]) [Compound 1074404]
YAP1 (% UTC) [9]: 16 % UTC

716441 (kG*k[5mC]*k[5mC]*dT*dT*dG*dG*dT*dT*dT*d[5mC]*dA*dG*k[5mC]*kT*kA; antisense) [Compound 716441]
YAP1 (% UTC) (Table 6, A-431 cells, 5,000 cells per well, free uptake, 2,000 nM modified oligonucleotide, approx. 48 hours, RTS4814, normalized to RIBOGREEN, Yap1 mRNA relative to untreated control cells): 57 % UTC

1074187 (antisense k[5mC]*kT*kG*d[5mC]*dG*dA*dA*dG*dG*d[5mC]*dG*dG*d[5mC]*kT*kG*k[5mC]) [Compound 1074187]
YAP1 (% UTC) [8]: 47 % UTC

1076170 (kA*kG*kT*dA*dA*dA*dG*dA*dG*dT*dA*d[5mC]*dT*kG*kT*kA; antisense) [Compound 1076170]
YAP1 (% UTC) [12]: 16 % UTC

1075920 (antisense kA*kA*kA*dG*dA*dA*dA*dG*d[5mC]*dT*dG*d[5mC]*dG*k[5mC]*kA*k[5mC]) [compound 1075920]
YAP1 (% UTC) [6]: 108 % UTC

1074856 (antisense kT*kT*kT*dG*dA*d[5mC]*dA*dA*dG*dT*dG*dT*dG*k[5mC]*kA*kT) [Compound 1074856]
YAP1 (% UTC) [4]: 15 % UTC

716424 (kG*k[5mC]*kA*dA*dT*dG*dG*dA*d[5mC]*dA*dA*dG*dG*kA*kA*kG; antisense) [Compound 716424]
YAP1 (% UTC) [7]: 25 % UTC

1076550 (antisense kT*kA*k[5mC]*d[5mC]*dA*dA*d[5mC]*d[5mC]*dT*dG*dT*dA*dT*k[5mC]*k[5mC]*kA) [Compound 1076550]
YAP1 (% UTC) [2]: 61 % UTC

1076050 (k[5mC]*kT*kT*dT*dA*dG*dA*dT*dT*dA*dA*dA*dG*kG*k[5mC]*kT; antisense) [compound 1076050]
YAP1 (% UTC) [5]: 45 % UTC

1075140 (antisense k[5mC]*kT*kT*dT*dA*dG*dG*dT*dT*dA*dA*dG*d[5mC]*kA*kA*kT) [Compound 1075140]
YAP1 (% UTC) [9]: 86 % UTC

1074641 (antisense kG*kG*k[5mC]*d[5mC]*dA*dA*dA*dA*dT*dA*d[5mC]*dT*dT*kA*kG*kA) [compound 1074641]
YAP1 (% UTC) [13]: 107 % UTC

1075282 (antisense kG*kA*kA*dA*dA*dA*dT*dG*dA*dG*d[5mC]*d[5mC]*d[5mC]*kG*kG*kT) [compound 1075282]
YAP1 (% UTC) [5]: 103 % UTC

1076083 (k[5mC]*kG*k[5mC]*dT*dA*dT*dA*dA*dA*dG*dT*dG*dG*k[5mC]*kA*kT; antisense) [compound 1076083]
YAP1 (% UTC) [14]: 46 % UTC

1075019 (antisense k[5mC]*kA*kT*dT*dA*dG*dA*dG*dT*dT*dT*dG*dA*kT*kT*kA) [Compound 1075019]
YAP1 (% UTC) [8]: 64 % UTC

1076362 (k[5mC]*k[5mC]*kA*d[5mC]*dT*dA*dA*dA*dT*dA*dA*dA*dG*k[5mC]*kA*kG; antisense) [Compound 1076362]
YAP1 (% UTC) [12]: 16 % UTC

1074321 (antisense kG*kG*kG*d[5mC]*dT*dA*dA*d[5mC]*dT*d[5mC]*d[5mC]*dT*dG*kA*k[5mC]*kA) [compound 1074321]
YAP1 (% UTC) [13]: 73 % UTC

1075398 (antisense kT*kA*kT*dA*dT*dA*dT*dG*dG*d[5mC]*d[5mC]*d[5mC]*dT*kT*kT*kA) [Compound 1075398]
YAP1 (% UTC) [2]: 49 % UTC

1075080 (antisense kA*kT*kT*dA*d[5mC]*dA*dA*dA*dG*dA*d[5mC]*dA*dG*k[5mC]*k[5mC]*k[5mC]) [Compound 1075080]
YAP1 (% UTC) [4]: 18 % UTC

1074699 (antisense k[5mC]*kT*kA*dT*d[5mC]*dA*dA*dG*dG*dT*d[5mC]*d[5mC]*d[5mC]*k[5mC]*k[5mC]*kT) [Compound 1074699]
YAP1 (% UTC) [8]: 27 % UTC

1076292 (kT*kA*kT*dT*dA*dT*dT*dG*dA*dG*dT*dT*dA*kT*k[5mC]*k[5mC]; antisense) [Compound 1076292]
YAP1 (% UTC) [9]: 27 % UTC

1074950 (antisense kA*kT*k[5mC]*dA*dG*dG*dT*dT*dA*dA*dG*dT*dG*kA*kT*kT) [Compound 1074950]
YAP1 (% UTC) [2]: 120 % UTC

1075251 (kT*kA*kA*dT*dT*dA*d[5mC]*dG*dA*dT*dT*dA*dG*kA*kT*k[5mC]; antisense) [compound 1075251]
YAP1 (% UTC) [14]: 79 % UTC

1074150 (antisense kG*kG*k[5mC]*d[5mC]*dG*dA*dG*dG*dT*dG*dG*dA*dG*kA*kA*kG) [Compound 1074150]
YAP1 (% UTC) [2]: 85 % UTC

1074693 (antisense k[5mC]*k[5mC]*k[5mC]*d[5mC]*d[5mC]*d[5mC]*d[5mC]*d[5mC]*dA*dA*dA*d[5mC]*dT*kT*kT*k[5mC]) [Compound 1074693]
YAP1 (% UTC) [1]: 92 % UTC

1076552 (antisense kA*kT*kG*dT*dA*dT*dA*dA*dA*dT*dA*d[5mC]*d[5mC]*kA*kG*kG) [Compound 1076552]
YAP1 (% UTC) [4]: 7 % UTC

1074313 (antisense kT*kG*kA*dT*dA*dT*dT*d[5mC]*d[5mC]*dG*d[5mC]*dA*dT*kT*kG*k[5mC]) [Compound 1074313]
YAP1 (% UTC) [11]: 5 % UTC

1075059 (antisense kA*kT*kT*dT*dA*d[5mC]*dT*dT*dT*dG*dG*dA*dT*kG*kT*k[5mC]) [compound 1075059]
YAP1 (% UTC) [14]: 11 % UTC

1076209 (k[5mC]*kA*kT*dT*dA*dG*d[5mC]*dA*d[5mC]*dA*d[5mC]*d[5mC]*dT*kT*kT*kT; antisense) [compound 1076209]
YAP1 (% UTC) [13]: 12 % UTC

1075497 (kA*kT*kT*dA*dT*dA*dT*dA*dA*dT*dG*d[5mC]*dA*kG*kG*k[5mC]; antisense) [Compound 1075497]
YAP1 (% UTC) [11]: 14 % UTC

716440 (k[5mC]*kT*k[5mC]*dT*dT*d[5mC]*dA*dA*dA*dT*d[5mC]*dA*dG*k[5mC]*kA*kT; antisense) [Compound 716440]
YAP1 (% UTC) [10]: 45 % UTC

1075882 (kG*kA*kA*dA*dA*dT*d[5mC]*d[5mC]*dT*dG*dA*dT*dT*kA*kA*k[5mC]; antisense) [Compound 1075882]
YAP1 (% UTC) [12]: 73 % UTC
